“And” between values parts separate entries of the source, which are not always exact repeats. Equal values may be shown once. Read-outs that look alike come from different tables or passages of the source.
Assays:
[1] = molecular target: intestinal brush border membrane alkaline phosphatase (Oryctolagus cuniculus, UniProt G1SXE4); assay: biochemical; assay type: biochemical
[2] = molecular target: T1, intestinal BBM Na/phosphate co-transporter (Oryctolagus cuniculus, UniProt G1SIP4)
T1 sequence (G1SIP4 25-715): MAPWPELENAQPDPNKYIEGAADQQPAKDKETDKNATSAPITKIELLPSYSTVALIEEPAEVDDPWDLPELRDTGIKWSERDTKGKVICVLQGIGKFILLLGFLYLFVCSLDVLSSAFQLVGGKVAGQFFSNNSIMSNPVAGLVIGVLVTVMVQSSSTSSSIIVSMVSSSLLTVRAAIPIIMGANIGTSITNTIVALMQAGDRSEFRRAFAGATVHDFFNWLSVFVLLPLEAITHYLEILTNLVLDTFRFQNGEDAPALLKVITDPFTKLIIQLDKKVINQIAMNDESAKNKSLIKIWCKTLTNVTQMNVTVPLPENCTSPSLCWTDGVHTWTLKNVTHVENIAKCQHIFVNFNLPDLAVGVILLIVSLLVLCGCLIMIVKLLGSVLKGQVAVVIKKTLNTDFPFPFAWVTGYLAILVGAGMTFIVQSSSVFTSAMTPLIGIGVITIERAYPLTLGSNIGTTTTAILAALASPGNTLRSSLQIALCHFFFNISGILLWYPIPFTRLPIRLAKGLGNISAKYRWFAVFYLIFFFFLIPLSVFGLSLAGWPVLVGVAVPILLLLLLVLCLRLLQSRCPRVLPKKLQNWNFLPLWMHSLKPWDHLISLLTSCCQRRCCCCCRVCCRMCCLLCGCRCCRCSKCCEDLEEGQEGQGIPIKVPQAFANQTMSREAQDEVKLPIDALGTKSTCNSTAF

[3] = tested on: rats on a 0.9% phosphorus diet; assay: Serum phosphate after withdrawal of 2′-PP (in vivo half-life); parameters: species or system rat
Method: Rats on a 0.9% phosphorus diet were given 10 μM [^3H]2′-PP in their water for 2 weeks. Serum phosphate and calcium were determined by spectrophotometric assays. Following the experimental period, 2′-PP was removed from the water, and the stool was examined for radioactivity at days 1, 3, 5 and 8, and serum phosphate was examined.
The apparent half-time to return to normal serum phosphate levels was approximately 3 days. […] During this maturation period, crypt cells express the intestinal brush border membrane Na/phosphate co-transporter.

[4] = Radioactivity in urine, stool, kidney and liver after [3H]2′-PP; assay type: in vivo, rat
Method: (§1) Ten rats with normal renal function were treated with varied amounts of [^3H]2′-PP by gavage for seven days. The 2′-PP was given once/day in a solution containing 270 mM sucrose and 10 mM Tris-Cl pH 7.4. Blood was withdrawn 1, 4, and 7 days from the start of the treatment and analyzed for serum phosphate and serum calcium, with the results shown in Table 1. A second, one-week trial was performed adding 2′-PP to the drinking water. Blood was withdrawn at 1, 4 and 7 days and assayed for calcium and phosphate. Dietary phosphorus was increased from 0.9% to 5% for one week, and the experiment repeated at the elevated dietary phosphorus with 2′-PP added to the drinking water for an additional two weeks. The amount of radioactivity in the urine and stool as examined. After two weeks, the animals were sacrificed, and the kidney and liver were examined for radioactivity.
After 4 weeks on 2′-PP, the rats were sacrificed and their kidneys and liver examined for radioactivity. […] A crude estimate of 2′-PP turnover time was calculated from the amount of radioactivity in the stool after administration of [^3H]2′-PP was discontinued; and the 2′-PP half-life was estimated as 12±1 hr.

[5] = molecular target: T2, intestinal Na/phosphate co-transporter (Oryctolagus cuniculus, UniProt G1SIP4); assay: Na-dependent [32P]phosphate uptake by rabbit intestinal brush border membrane (BBM) vesicles; conditions: for type of inhibition of Na-dependent phosphate uptake: Dixon plot, with respect to phosphate
T2 sequence (G1SIP4 1-715): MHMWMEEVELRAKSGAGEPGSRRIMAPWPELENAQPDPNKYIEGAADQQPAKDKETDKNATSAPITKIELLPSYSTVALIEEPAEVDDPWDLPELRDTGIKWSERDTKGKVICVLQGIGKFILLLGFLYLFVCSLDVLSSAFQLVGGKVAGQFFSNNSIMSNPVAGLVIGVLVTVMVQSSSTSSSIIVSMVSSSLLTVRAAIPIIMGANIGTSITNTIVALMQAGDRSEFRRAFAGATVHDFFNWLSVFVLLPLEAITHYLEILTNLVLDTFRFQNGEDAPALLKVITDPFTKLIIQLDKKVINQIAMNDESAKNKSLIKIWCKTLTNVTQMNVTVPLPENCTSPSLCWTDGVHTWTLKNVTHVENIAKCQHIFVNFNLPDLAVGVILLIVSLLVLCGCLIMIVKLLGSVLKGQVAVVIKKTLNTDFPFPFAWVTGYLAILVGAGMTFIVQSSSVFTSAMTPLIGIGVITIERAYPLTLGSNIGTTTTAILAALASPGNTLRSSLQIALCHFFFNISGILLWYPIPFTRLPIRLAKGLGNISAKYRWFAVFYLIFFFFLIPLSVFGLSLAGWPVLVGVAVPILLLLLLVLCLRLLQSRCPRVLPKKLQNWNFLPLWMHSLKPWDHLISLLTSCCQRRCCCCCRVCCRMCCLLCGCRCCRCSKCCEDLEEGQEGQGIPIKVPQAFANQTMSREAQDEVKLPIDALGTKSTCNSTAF

[6] = tested on: rats with normal renal function; assay: Effect of 2′-PP on rat survival, serum phosphate and serum calcium (Table 1 study); assay type: in vivo; conditions: for Serum calcium / Serum phosphate: seven days after beginning treatment
Method: as §1
Serum calcium levels (2.1 mM±0.18 mM) remained unchanged (7% fluctuation compared to 3% error in duplicate determinations) on both the normal and high phosphate diets irrespective of 2′-PP concentration. […] Serum phosphate was 2.5±0.2 mM prior to administration of 2′-PP (n=12). […] Rats on the high phosphate diet required higher 2′-PP concentrations to achieve the same results, however, similar decreases in serum phosphate were seen. […] At 10 μM 2′-PP, rats on the high phosphorus diet had serum phosphate levels below that seen in untreated rats on the normal phosphate diet.
The values given are measured seven days after beginning treatment with the indicated 2′-PP concentration. Results are from duplicate rats and assayed in triplicate.

[7] = tested on: rats with normal renal function; assay: Second 2-week study of 2′-PP in drinking water (FIG. 10, 11); assay type: in vivo, rat
Method: Serum phosphate again decreased in a 2′-PP concentration-dependent manner immediately after its addition to the rats' drinking water. After 2 weeks on 2′-PP, serum phosphate was reduced to between 1.8 mM on 1 μM 2′-PP and 1.2 mM at 25 μM 2′-PP. […] This decrease in serum calcium may be related to a slight volume expansion. The rats receiving 5 μM or higher concentrations of 2′-PP drank 2-4 times more water than normal for the first 4 days of the study. After the first 4 days, water consumption returned to normal.

[8] = tested on: intestinal Na/phosphate co-transporter; assay: [3H]AZPP photolabeling of Ca-BBM protein, papain digest and immunoprecipitation; assay type: binding
Method: Ca-BBM protein (1.8 nmoles 2′-PP binding sites as determined from 9 pmoles [^3H]2′-PP bound/mg protein) was labeled with [^3H]AZPP (1 minute incubation with 10 μM [^3H]AZPP at 4° C. in 150 mM NaCl and 10 mM sodium borate pH 7, followed by a 1 minute exposure to visible light). Following centrifugation to remove excess label, BBM protein was digested with papain as previously described in Peerce, B. E. (1995) Biochim. Biophys. Acta. 1239: 11-21 and Peerce, B. E.; Cedilote, M. and Clarke, R. D. (1995) Biochim. Biophys. Acta. 1239: 1-10, and resolved into membrane-retained and soluble peptides. 95% of the radioactivity was in the membrane-retained fraction. SDS-solubilization of the membrane-retained fraction released 85% of the radioactivity.
A polyclonal antibody to the intestinal Na/phosphate co-transporter (KL9.2) developed in the laboratory was used to immunoprecipitate CHAPS-solubilized [^3H]AZPP-labeled Ca-BBM protein. The complex was electrophoresed by SDS-PAGE and stained with Coomassie blue, according to the method of Laemmli, U.K 1970 Nature (Lond.) 227: 680-685. A track was cut into 2 mm slices, and the slices counted for tritium. […] The residual 12%±2%, n=3, of the applied label appeared to be non-specifically associated with lipid (chloroform:methanol extracted).

[9] = 10 μM [3H]2′-PP in water for 2 weeks, then removed
[10] = High Phosphate Diet, [2′-PP] 1 μM
[11] = High Phosphate Diet, [2′-PP] 2 μM
[12] = High Phosphate Diet, [2′-PP] 5 μM
[13] = High Phosphate Diet, [2′-PP] 10 μM
[14] = High Phosphate Diet, [2′-PP] 25 μM
[15] = Normal Phosphate Diet, [2′-PP] 1 μM
[16] = Normal Phosphate Diet, [2′-PP] 2 μM
[17] = Normal Phosphate Diet, [2′-PP] 5 μM
[18] = Normal Phosphate Diet, [2′-PP] 10 μM
[19] = Normal Phosphate Diet, [2′-PP] 25 μM
[20] = four weeks of treatment with 2′-PP

Sequence of intestinal brush border membrane alkaline phosphatase (G1SXE4 25-504): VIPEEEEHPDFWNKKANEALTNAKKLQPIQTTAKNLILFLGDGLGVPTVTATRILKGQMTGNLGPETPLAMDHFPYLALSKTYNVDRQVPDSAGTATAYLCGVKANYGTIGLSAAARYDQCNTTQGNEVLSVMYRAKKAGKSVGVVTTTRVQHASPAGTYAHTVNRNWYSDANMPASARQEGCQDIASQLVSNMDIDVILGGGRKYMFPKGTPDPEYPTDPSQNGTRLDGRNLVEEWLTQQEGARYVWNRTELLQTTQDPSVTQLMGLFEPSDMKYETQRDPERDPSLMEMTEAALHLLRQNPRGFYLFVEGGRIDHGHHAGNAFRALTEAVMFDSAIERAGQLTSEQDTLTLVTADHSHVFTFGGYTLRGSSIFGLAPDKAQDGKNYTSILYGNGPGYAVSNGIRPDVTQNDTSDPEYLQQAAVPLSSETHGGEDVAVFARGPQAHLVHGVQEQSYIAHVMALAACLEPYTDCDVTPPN

O=C(CCc1ccc(O)cc1)c1c(O)cc(O)cc1OP(=O)(O)O
substrate of alkaline / apical membrane phosphatase [1]: substrate of alkaline phosphatase | type of inhibition of alkaline phosphatase [1]: competitive inhibitor | inhibition at 50 µM ([1]; read-out: inhibition of alkaline phosphatase): 33% | 2′-PP bound (kinetic analysis of trace B) [2]: 8.5 pmoles 2′-PP bound/mg protein | 2′-PP bound at infinite osmotic strength [2]: 8±0.6 pmoles of 2′-PP bound/mg protein | 2′-PP bound in the absence of Na [2]: 0.12±0.005 pmoles 2′-PP bound/mg protein | Hill coefficient nH of Na effect on 2′-PP binding [2]: 1.9±0.25 | [3H]2′-PP binding sites [2]: 9 pmoles [^3H]2′-PP bound/mg protein | apparent K0.5 for Na (Na concentration at 50% 2′-PP bound) [2]: 23 ± 3 mM | transport by the Na/phosphate co-transporter [2]: not transported | apparent half-time to return to normal serum phosphate levels [3, 9]: approximately 3 days | time for serum phosphate to return to normal (control) level after withdrawal [3, 9]: five | inhibition at 10 µM ([3]; Rattus norvegicus, 10 μM 2′-PP administered daily, read-out: inhibition of the Na/phosphate co-transporter in vivo): ~100% | radioactivity in the urine, kidney, or the liver ([4]; after 4 weeks on [3H]2′-PP): No measurable radioactivity | permeation across the intestinal membrane ([4]; at the concentrations tested): relatively impermeant | 2′-PP half-life (turnover time) ([4]; crude estimate from radioactivity in the stool after [3H]2′-PP was discontinued): 12 ± 1 h | Ki [5]: 0.59 ± 0.08 µM | type of inhibition of Na-dependent phosphate uptake [5]: competitive with respect to phosphate | change in apparent k0.5 for inhibition of Na-dependent [32P]phosphate uptake after pre-incubation with Ca-BBM ([5]; incubations of up to 10 minutes at 23° C.): no measurable change | Serum calcium [6, 10]: 2.1 ± 0.1 mM | Serum phosphate [6, 10]: 4.4 ± 0.2 mM | Serum calcium [6, 11]: 2.1 ± 0.1 mM | Serum phosphate [6, 11]: 3.3 ± 0.2 mM | Serum calcium [6, 12]: 2.1 ± 0.1 mM | Serum phosphate [6, 12]: 2.6 ± 0.1 mM | Serum calcium [6, 13]: 2.1 ± 0.1 mM | Serum phosphate [6, 13]: 2.0 ± 0.04 mM | Serum calcium [6, 14]: 2.0 ± 0.1 mM | Serum phosphate [6, 14]: 1.8 ± 0.08 mM | Serum calcium [6, 15]: 2.1 ± 0.08 mM | Serum phosphate [6, 15]: 2.5 ± 0.1 mM | Serum calcium [6, 16]: 2.1 ± 0.1 mM | Serum phosphate [6, 16]: 2.2 mM and 2.2 ± 0.1 mM | Serum calcium [6, 17]: 2.1 ± 0.05 mM | Serum phosphate [6, 17]: 2.0 ± 0.07 mM | Serum calcium [6, 18]: 2.0 ± 0.1 mM | Serum phosphate [6, 18]: 1.8 ± 0.1 mM | Serum calcium [6, 19]: 2.1 ± 0.1 mM | Serum phosphate [6, 19]: 1.4 mM and 1.4 ± 0.1 mM | change in weight [6, 20]: nor did they suffer any measurable change in weight | rat survival [6, 20]: none of the rats died | Serum calcium levels (remained unchanged) ([6]; normal and high phosphate diets, irrespective of 2′-PP concentration): 2.1 mM | water consumption relative to normal ([7]; 5 μM or higher concentrations of 2′-PP, first 4 days of the study): 2-4 times | Serum calcium ([7]; 2′-PP concentrations of 5 μM and higher): significant decrease | Serum phosphate ([7]; after 2 weeks at 25 μM 2′-PP in drinking water): 1.2 mM | Serum phosphate ([7]; after 2 weeks on 1 μM 2′-PP in drinking water): 1.8 mM

[N-]=[N+]=Nc1cc(CCC(=O)c2c(O)cc(OP(=O)(O)O)cc2O)ccc1O [AZPP, 1-[2,6-dihydroxy-4-(phosphonooxy)phenyl]-3-(3-azido-4-hydroxyphenyl)-1-propanone]
labeled species on urea gel electrophoresis after papain digestion of SDS soluble protein [8]: single 24 kDa polypeptide | radioactivity released by SDS-solubilization of the membrane-retained fraction [8]: 85% | radioactivity in the membrane-retained fraction after papain digestion ([8]; 10 μM [3H]AZPP, 4° C., 150 mM NaCl, visible light): 95% | labeled species on SDS-PAGE after immunoprecipitation with antibody KL9.2 ([8]; CHAPS-solubilized labeled Ca-BBM protein): single 120-kDa polypeptide | residual applied label non-specifically associated with lipid ([8]; chloroform:methanol extracted, n=3): 12%

O=C(CCc1ccc(O)cc1)c1c(O)cc(NP(=O)(O)O)cc1O [NHPP]
type of inhibition of Na-dependent phosphate uptake [5]: competitive inhibitor | Ki ([5]; read-out: K1 (Kl) for inhibition of Na-dependent phosphate uptake, from replot of Dixon plot slope, phosphate 50, 100, 250 μM, n=3): 6.9 ± 1 µM

Phosphate [reference compound]
IC50 ([2]; read-out: concentration inhibiting 50% of Na-dependent 2′-PP bound to Ca-BBM): 105 ± 15 µM

Source: US6355823B1 (Board of Regents, The University of Texas System, priority 1999, dated 2002)
